In a melting point compilation (Tetko et al.; mined from patent text by program, amines drawn as free bases though some values may be those of a salt):

Row | Structure (SMILES) | melting point
1 | CC(C)Oc1cc(O)c2c(=O)cc(Sc3ccc(O)cc3)oc2c1 | 205 to 207 °C
2 | CNS(=O)(=O)C(C)C(=O)C=C(C)N (configuration not stated) | 140 to 143 °C
3 | CC(C)n1nc(-c2c(-c3ccccc3)nn3ccc(N4CCN(C(=O)CN(C)C)CC4)cc23)ccc1=O | 129 to 130 °C
4 | Cc1ccccc1NC(=O)/C=C/C=C/CC1CCc2c(cccc2C(F)(F)F)C1 (configuration not stated) | 171 °C
5 | O=Cc1csc(NC2CC2)n1 | 124 to 127 °C
6 | CCc1nn(C2CCCC2)c(N)c1C#N | 171 to 173 °C
7 | COC(=O)c1cc(I)c(OC)c2c1OCO2 | 162 to 164 °C
8 | O=C(O)Cc1ccc(CNC(=O)C2Cc3ccccc3N2S(=O)(=O)c2ccc(-c3cccc(Cl)c3)cc2)cc1 (configuration not stated) | 120 °C
9 | COc1cc(C)c2c(Cl)c(OC)cc([N+](=O)[O-])c2n1 | 199 to 200 °C
10 | O=c1cnc2c(NC(CO)CO)nc(SCc3cccs3)nc2[nH]1 | 220 to 223 °C
11 | COc1ccc(CNc2ccc(C#N)cc2)cc1F | 108 °C
12 | CCC(C(=O)O)(c1ccc(OCc2ccc3ccccc3n2)cc1)c1ccc(OCc2ccc3ccccc3n2)cc1 | 83 to 92 °C
13 | CCS(=O)(=O)Nc1cc(Br)cc(Cc2c[nH]cn2)c1C | 202 to 204 °C
14 | N#CC(c1ccnc(NCCc2c[nH]cn2)n1)c1nc2ccccc2s1 (configuration not stated) | 257 to 258 °C
15 | O=C(NC/C=C\COc1cc(CN2CCCCC2)ccn1)NC1CCC1 | 130 to 132 °C
16 | Nc1nccnc1C(=O)NCCc1ncc[nH]1 | 204 to 208 °C
17 | COc1cc(OCc2cccnc2)ccc1/C=C/c1cc(/C=C/c2cc3ccccc3[nH]2)n[nH]1 | 126 to 138 °C
18 | CC1(C)OCCN1CCNc1ccc(NCCN2CCOC2(C)C)c2c1C(=O)c1c(O)ccc(O)c1C2=O | 255 to 256 °C
19 | Cc1cc(-c2c3ccccc3c(Br)c3sc(C)c(C)c23)cc(C)c1OS(=O)(=O)c1ccc(C(=O)O)c(O)c1 | > 225 °C
20 | Fc1ccc(N2CCN(CCCOc3ccc(-n4cccn4)cc3)CC2)cc1 | 151 to 153 °C
21 | Cc1cc(SCCc2ccc(-c3ccc(C(F)(F)F)cc3)cc2)ccc1OCC(=O)O | 132 to 134 °C
22 | COc1cn(-c2ccc(C3CCOCC3)cc2F)nc(-c2ccnn2-c2ccccc2)c1=O | 187 to 189 °C
23 | COc1ccccc1Oc1c(NS(=O)(=O)c2ccc(C)cn2)nc(-c2cccc(O)c2)nc1OC | 211 to 216 °C
24 | COCCOc1cc2ncnc(Oc3ccc(Cl)cc3F)c2cc1OC | 167 to 168 °C
25 | CCCCn1c(=O)n(CCC)c(=O)c2c3n(nc21)CCCN3 | 147 to 150 °C

Row | Structure (SMILES) | melting point
26 | O=C1CSc2nc(C34CC5CC(CC(C5)C3)C4)cn21 | 130 to 132 °C
27 | Cc1c(O)nc2ccc(F)cc2c1C(=O)O | > 305 °C
28 | SCc1cn(C(c2ccccc2)(c2ccccc2)c2ccccc2)nn1 | 140 to 141 °C
29 | COc1ccc(C(=O)N2CCc3cc(OCc4ccccc4)ccc3C2)cc1OC | 126 to 127 °C
30 | C#CC(C)NCC(O)COc1ccccc1C=Cc1nnc(C)s1 (configuration not stated) | 143 to 145 °C
31 | O=C(N[C@@H](CSC(=O)OCc1ccccc1)C(=O)O)OCc1ccccc1 | 93 to 94 °C
32 | CC(C)(C)OC(=O)NC1CCCC(NC(=O)c2ccc(-c3[nH]nc4c3C(=O)c3c(NC(=O)NN5CCOCC5)cccc3-4)s2)C1 (configuration not stated) | > 300 °C
33 | CC(=O)N1CCN(c2c(C)c(C)c3c(c2C)C(c2ccc(C)cc2)C(C)(C)O3)CC1 (configuration not stated) | 272 to 274 °C
34 | COc1ccc(CCNCC(O)c2ccc(OCc3ccccc3)c(OCc3ccccc3)c2)cc1OC (configuration not stated) | 79 to 81 °C
35 | O=C(NC(c1ccccc1)C(O)C(=O)OCc1ccccc1)c1ccccc1 (configuration not stated) | 129 to 131 °C
36 | CC(C)n1c(=O)n(C(=O)NCC2CCN(CC3(C(=O)O)CCCC3)CC2)c2ccccc21 | 165 °C
37 | CCNc1cc2ccc(OC)c(OC)c2c2cc(C)ccc12 | 100 to 102 °C
38 | COCCOc1cc2c(Nc3cc(OC)c(Cl)cc3Cl)c(C#N)cnc2cc1OCC1CCN(C)CC1 | 153 to 155 °C
39 | CCC(CO)c1ccc(N=C2SCCS2)cc1 (configuration not stated) | 98.5 to 100 °C
40 | COC(=O)N(C)C(=O)N(SC(Cl)Cl)c1ccccc1 | 77 to 78 °C
41 | C=C(C)[C@@H]1CC[C@](C)(O)[C@@H](n2ccnc2)C1 | 126 to 128 °C
42 | Clc1ccc(-c2nnc(NCCN3CCCCC3)c(Cc3ccccc3)n2)cc1 | 196 °C
43 | O=[N+]([O-])CS(=O)(=O)c1ccccc1C(F)(F)F | 80 °C
44 | CCc1nc2c(N)nc3ccccc3c2n1CCCCSC | 183 to 186 °C
45 | COc1cc(N=C=S)nc(OC)c1 | 85 to 86 °C
46 | N#Cc1ccc(OCCCOc2ccc(-c3cc4ccc(C#N)cc4o3)cc2)cc1 | 208 to 210 °C
47 | COc1ccc(-c2cccnc2)cc1 | 62 to 63 °C
48 | O=C(Nc1ccc(N2CCCC2)cc1)N(C[C@H]1CC[C@H](CN(C(=O)Nc2ccc(N3CCCC3)cc2)C2CCCCC2)CC1)C1CCCCC1 | 149 to 152 °C
49 | CC(=O)OC(OC(C)=O)c1ccc(C#N)cc1 | 104 to 107 °C

Next, values leading:

Row | melting point | Structure (SMILES)
50 | 129 to 131 °C | CCOC(=O)c1c(-c2cccc(F)c2)c(C#N)n2c1CN(C(=O)OC(C)(C)C)CC2
51 | 145 °C | Cc1ccc(S(=O)(=O)OCC2COc3ccc4[nH]ccc4c3O2)cc1 (configuration not stated)
52 | 99 to 100 °C | COC(=O)CN1C(=S)C(C(C)C)Sc2ccccc21 (configuration not stated)
53 | 201 °C | Cn1c2ccccc2c2nc3cccc(CO)c3nc21
54 | 250 °C | O=C1Nc2cccc(Cl)c2C(=O)N2CC=C[C@@H]12
55 | 176 to 179 °C | Cc1cccc2c1ncn2Cc1oc2ccc(Br)cc2c(=O)c1-c1ccccc1
56 | 310 to 320 °C | Cc1nc2c([nH]c(=O)c3ccccc32)s1
57 | 191 to 193 °C | O=c1ccc(-c2ccc(OCCCCl)cc2)n[nH]1
58 | 179 to 184 °C | CC(=O)N1CCN(C(=O)c2cc3ccnc(Cl)c3[nH]2)CC1
59 | 118 to 119 °C | O=[N+]([O-])c1cccc(Oc2cncc(Cl)n2)c1
60 | 101 °C | COC(=O)c1ccccc1S(=O)(=O)NC(=O)c1cc(C)on1
61 | 68 to 70 °C | CN(C)C=CC(=O)c1cccc(Cl)c1
62 | 150 °C | CCc1cccc(NC(=O)c2ccn3c2CSC3c2cccnc2)n1 (configuration not stated)
63 | 79 to 80 °C | CCN(CC)C(=O)c1c(OC)cccc1-c1ccccc1
64 | 174 °C | CONc1nc(-c2ccccc2)c2cc(Cl)ccc2n1
65 | 197 to 199 °C | CN1C2CCCC1CC(NC(=O)c1cccc3oc(-c4ccc(F)cc4)nc13)C2 (configuration not stated)
66 | 196 to 203 °C | Nc1cc(Cl)c(Cl)cc1C(=O)O
67 | > 260 °C | O=C1c2ccccc2C(=O)c2sc(-c3cc(Br)co3)nc21
68 | 110 to 111 °C | COCC(=O)Nc1nc2c(C)cccc2s1
69 | 163 to 165 °C | CCOC(=O)C1=C(C)NC(COCCn2ccnc2)=C(C(=O)OCC)C1c1ccccc1Cl (configuration not stated)
70 | 180 to 182 °C | CCC(O)CN1CCC2(CC1)CSC1=C(O2)c2ccccc2C(=O)C1=O (configuration not stated)
71 | 146 °C | COc1ccc(CN2C(=O)N([C@H](C)c3ccccc3)[C@H]3COC(=O)[C@H]32)cc1
72 | > 240 °C | N#CC1=C(C2CCCN2)Nc2n[nH]cc2C1c1cccc(C#N)c1Br (configuration not stated)
